Assay results from patent publication US5585353A, “Antibiotic peptides containing D-amino acids” (The Rockefeller University, priority 1994, dated 1996).
Residues, ends and D or L forms follow the SMILES beside them. No end group written: not given here.

Assays:
Format in all cases: cell-based
[1] = tested on: Sheep red cells; assay: inhibition zone assay, lethal concentration on sheep red cells; settings: thin agarose plates
Description: (§1) Thin agar or agarose plates (8.5 cm diameter) were prepared with 6 ml of rich medium containing 100 ug/ml of streptomycin and 2×10^5 viable cells of a test organism resistant to streptomycin. Wells of 3.5 mm diameter were punched in the plates and 3 ul of serially diluted samples were placed in the wells. The diameters of the zones of inhibition around the wells were measured after overnight incubation at 30° or 37° C. For each peptide the squares of the zone diameters were plotted against the logarithm of the concentration, and from the slopes and intercepts the lethal concentrations were calculated as described by Hultmark (1983) EMBO J. 2, 571-76 or Hultmark et al (1982) Eur. J. Biochem. 127 207-217 each of which being incorporated herein by reference.
(§2) Lethal Concentrations calculated from inhibition zones on thin agarose
(§3) S. aureus Cowan 1; Strep: S. pyogenes; SRC: Sheep red cells.; *all amino

[2] = tested on: E. coli D21; assay: inhibition zone assay, lethal concentration; settings: E. coli D21, thin agarose plates
Description: as §1, §2
(§4) plates seeded with the respective organisms. D21: E. coli; OT97: P.

[3] = tested on: P. aeruginosa OT97; assay: inhibition zone assay, lethal concentration; settings: P. aeruginosa OT97, thin agarose plates
Description: as §1, §2, §4
(§5) aeruginosa; Bs11: B. subtilis; +ME: plates prepared with medium E; Staph: […]

[4] = tested on: B. subtilis Bs11; assay: inhibition zone assay, lethal concentration; settings: for Lethal Concentrations Bs11 +ME: B. subtilis Bs11, plates prepared with medium E; for Lethal Concentrations Bs11: B. subtilis Bs11, thin agarose plates
Description: as §1, §2, §5

[5] = tested on: S. aureus Cowan 1; assay: inhibition zone assay, lethal concentration; settings: S. aureus Cowan 1, thin agarose plates
Description: as §1, §2
aeruginosa; Bs11: B. subtilis; +ME: plates prepared with medium E; Staph:
as §3

[6] = tested on: S. pyogenes; assay: inhibition zone assay, lethal concentration; settings: thin agarose plates
Description: as §1, §2, §3

Compound | Lethal Concentrations SRC [1] [µM] | Lethal Concentrations D21 [2] [µM] | Lethal Concentrations OT97 [3] [µM] | Lethal Concentrations Bs11 +ME [4] [µM] | Lethal Concentrations Bs11 [4] [µM] | Lethal Concentrations Staph [5] [µM] | Lethal Concentrations Strep [6] [µM]
CC[C@@H](C)[C@@H](NC(=O)CNC(=O)[C@@H](CCC(N)=O)NC(=O)CNC(=O)[C@H](NC(=O)[C@@H](CCCCN)NC(=O)[C@@H](CCC(=O)O)NC(=O)[C@H](NC(=O)[C@@H](CCCCN)NC(=O)[C@@H](CCCCN)NC(=O)[C@@H](Cc1ccccc1)NC(=O)[C@@H](CC(C)C)NC(=O)[C@@H](CCCCN)NC(=O)[C@@H](Cc1c[nH]c2ccccc12)NC(=O)[C@H](N)CCCCN)[C@H](C)CC)C(C)C)C(=O)NCC(=O)N[C@H](C)C(=O)N[C@@H](C(=O)N[C@H](CC(C)C)C(=O)N[C@H](CCCCN)C(=O)N[C@@H](C(=O)N[C@H](CC(C)C)C(=O)N[C@@H](C(=O)N[C@@H](C(=O)NCC(=O)N[C@H](CC(C)C)C(N)=O)[C@H](C)O)[C@H](C)O)C(C)C)C(C)C [Compound 4] | 500 | – | – | – | – | – | –
CC[C@H](C)[C@H](NC(=O)CN)C(=O)NCC(=O)N[C@@H](C)C(=O)N[C@H](C(=O)N[C@@H](CC(C)C)C(=O)N[C@@H](CCCCN)C(=O)N[C@H](C(=O)N[C@@H](CC(C)C)C(=O)N[C@H](C(=O)N[C@H](C(=O)NCC(=O)N[C@@H](CC(C)C)C(=O)N1CCC[C@H]1C(=O)N[C@@H](C)C(=O)N[C@@H](CC(C)C)C(=O)N[C@H](C(=O)N[C@@H](CO)C(=O)N[C@@H](Cc1c[nH]c2ccccc12)C(=O)N[C@H](C(=O)N[C@@H](CCCCN)C(=O)N[C@@H](CCCNC(=N)N)C(=O)N[C@@H](CCCCN)C(=O)N[C@@H](CCCNC(=N)N)C(=O)N[C@@H](CCC(N)=O)C(=O)N[C@@H](CCC(N)=O)C(N)=O)[C@@H](C)CC)[C@@H](C)CC)[C@@H](C)O)[C@@H](C)O)C(C)C)C(C)C [Compound 10, Melittin] | 4 to 8 | 0.8 | 3 | 0.3 | 0.2 | 0.2 | 0.5
CC[C@@H](C)[C@@H](NC(=O)CNC(=O)[C@H](NC(=O)[C@@H](CCCCN)NC(=O)[C@@H](CCCCN)NC(=O)[C@@H](Cc1ccccc1)NC(=O)[C@@H](CC(C)C)NC(=O)[C@@H](CCCCN)NC(=O)[C@@H](Cc1c[nH]c2ccccc12)NC(=O)[C@H](N)CCCCN)[C@H](C)CC)C(=O)NCC(=O)N[C@H](C)C(=O)N[C@@H](C(=O)N[C@H](CC(C)C)C(=O)N[C@H](CCCCN)C(=O)N[C@@H](C(=O)N[C@H](CC(C)C)C(=O)N[C@@H](C(=O)N[C@@H](C(=O)NCC(=O)N[C@H](CC(C)C)C(=O)N1CCC[C@@H]1C(=O)N[C@H](C)C(=O)N[C@H](CC(C)C)C(=O)N[C@@H](C(=O)N[C@H](CO)C(N)=O)[C@H](C)CC)[C@H](C)O)[C@H](C)O)C(C)C)C(C)C [Compound 7] | > 400 | – | – | – | – | – | –
CC[C@@H](C)[C@@H](NC(=O)CN)C(=O)NCC(=O)N[C@H](CCCCN)C(=O)N[C@H](Cc1ccccc1)C(=O)N[C@H](CC(C)C)C(=O)N[C@H](Cc1c[nH]cn1)C(=O)N[C@H](CO)C(=O)N[C@H](C)C(=O)N[C@H](CCCCN)C(=O)N[C@H](CCCCN)C(=O)N[C@H](Cc1ccccc1)C(=O)NCC(=O)N[C@H](CCCCN)C(=O)N[C@H](C)C(=O)N[C@H](Cc1ccccc1)C(=O)N[C@@H](C(=O)NCC(=O)N[C@H](CCC(=O)O)C(=O)N[C@@H](C(=O)N[C@H](CCSC)C(=O)N[C@H](CC(N)=O)C(=O)N[C@H](CO)C(N)=O)[C@H](C)CC)C(C)C [Compound 9] (HELM PEPTIDE1{G.[dI].G.[dK].[dF].[dL].[dH].[dS].[dA].[dK].[dK].[dF].G.[dK].[dA].[dF].[dV].G.[dE].[dI].[dM].[dN].[dS].[am]}$$$$V2.0) | > 400 | 1 | 30 | 4 | 3 | 100 | 3
CC[C@H](C)[C@H](NC(=O)CNC(=O)[C@@H](NC(=O)[C@H](CCCCN)NC(=O)[C@H](CCCCN)NC(=O)[C@H](Cc1ccccc1)NC(=O)[C@H](CC(C)C)NC(=O)[C@H](CCCCN)NC(=O)[C@H](Cc1c[nH]c2ccccc12)NC(=O)[C@@H](N)CCCCN)[C@@H](C)CC)C(=O)NCC(=O)N[C@@H](C)C(=O)N[C@H](C(=O)N[C@@H](CC(C)C)C(=O)N[C@@H](CCCCN)C(=O)N[C@H](C(=O)N[C@@H](CC(C)C)C(=O)N[C@H](C(=O)N[C@H](C(=O)NCC(=O)N[C@@H](CC(C)C)C(=O)N1CCC[C@H]1C(=O)N[C@@H](C)C(=O)N[C@@H](CC(C)C)C(=O)N[C@H](C(=O)N[C@@H](CO)C(N)=O)[C@@H](C)CC)[C@@H](C)O)[C@@H](C)O)C(C)C)C(C)C [Compound 6] | > 600 | – | – | – | – | – | –
GIGKFLHSAKKFGKAFVGEIMNS-NH2 [Compound 8] | 300 | 4 | 30 | 8 | 3 | 300 | 4
CC[C@H](C)[C@H](NC(=O)CNC(=O)[C@H](CCC(N)=O)NC(=O)CNC(=O)[C@@H](NC(=O)[C@H](CCCCN)NC(=O)[C@H](CCC(=O)O)NC(=O)[C@@H](NC(=O)[C@H](CCCCN)NC(=O)[C@H](CCCCN)NC(=O)[C@H](Cc1ccccc1)NC(=O)[C@H](CC(C)C)NC(=O)[C@H](CCCCN)NC(=O)[C@H](Cc1c[nH]c2ccccc12)NC(=O)[C@@H](N)CCCCN)[C@@H](C)CC)C(C)C)C(=O)NCC(=O)N[C@@H](C)C(=O)N[C@H](C(=O)N[C@@H](CC(C)C)C(=O)N[C@@H](CCCCN)C(=O)N[C@H](C(=O)N[C@@H](CC(C)C)C(=O)N[C@H](C(=O)N[C@H](C(=O)NCC(=O)N[C@@H](CC(C)C)C(N)=O)[C@@H](C)O)[C@@H](C)O)C(C)C)C(C)C [Compound 3] | > 200 | – | – | – | – | – | –
